Assay results published in ChEMBL document CHEMBL1201862, “PubChem BioAssay data set” (2004).
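1) Cells in 96-well plates. 2) Compound, 48 h, 5 concentrations. 3) Linear interpolation between surrounding doses. 4) Unreached endpoint = highest concentration. Here, GI50 denotes the concentration required for 50% inhibition of growth.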 Active and inactive are the calls of the source. No stated cut-off is given here; in the data, active = GI50 up to about 1.1 µM and inactive = higher.

Legend:
Experiment in all cases: NCI anticancer screen, dose series, 48 h
UO-31 = system: UO-31
PC-3 = system: PC-3
RXF 393 = system: RXF 393
SF-539 = system: SF-539
MOLT-4 = system: MOLT-4
ACHN = system: ACHN
SK-MEL-2 = system: SK-MEL-2
DU-145 = system: DU-145
Hs-578T = system: Hs-578T
SF-268 = system: SF-268
KM12 = system: KM12
786-0 = system: 786-0
M14 = system: M14
SNB-19 = system: SNB-19
CAKI-1 = system: CAKI-1
HCT-15 = system: HCT-15
OVCAR-5 = system: OVCAR-5
MDA-MB-435 = system: MDA-MB-435
MDA-N = system: MDA-N
LOX IMVI = system: LOX IMVI

## CCCCn1c(N)c(-c2nc3ccccc3o2)sc1=S
UO-31
  GI50: 20 µM (inactive)
PC-3
  GI50: 23.4 µM (inactive)
RXF 393
  GI50: 36.7 µM (inactive)
SF-539
  GI50: 10.1 µM (inactive)
MOLT-4
  GI50: 43 µM (inactive)
ACHN
  GI50: 10.3 µM (inactive)
SK-MEL-2
  GI50: 13.4 µM (inactive)
DU-145
  GI50: 12.4 µM (inactive)
Hs-578T
  GI50: 26.9 µM (inactive)
SF-268
  GI50: 16.4 µM (inactive)
KM12
  GI50: 12.5 µM (inactive)
786-0
  GI50: 17.3 µM (inactive)
M14
  GI50: 23 µM (inactive)
SNB-19
  GI50: 41.3 µM (inactive)
CAKI-1
  GI50: 13.7 µM (inactive)
HCT-15
  GI50: 15.4 µM
OVCAR-5
  GI50: 24.8 µM (inactive)
MDA-MB-435
  GI50: 12.6 µM (inactive)
MDA-N
  GI50: 15.6 µM (inactive)

## COC(=O)C1CCC(=S)N1C(=O)c1ccccc1 (centres undefined)
UO-31
  GI50: > 100 µM (inactive)
PC-3
  GI50: > 100 µM (inactive)
RXF 393
  GI50: > 100 µM (inactive)
MOLT-4
  GI50: 26.5 µM (inactive)
ACHN
  GI50: > 100 µM (inactive)
SK-MEL-2
  GI50: > 100 µM (inactive)
DU-145
  GI50: > 100 µM (inactive)
Hs-578T
  GI50: > 100 µM (inactive)
SF-268
  GI50: > 100 µM (inactive)
KM12
  GI50: > 100 µM (inactive)
786-0
  GI50: > 100 µM (inactive)
M14
  GI50: > 100 µM (inactive)
SNB-19
  GI50: > 100 µM (inactive)
CAKI-1
  GI50: > 100 µM (inactive)
HCT-15
  GI50: > 100 µM
OVCAR-5
  GI50: > 100 µM (inactive)
MDA-MB-435
  GI50: > 100 µM (inactive)
MDA-N
  GI50: > 100 µM (inactive)

## CC(C)=CCN1c2ccccc2[C@@]2(CC=C(C)C)CCN(C)[C@@H]12 [(+)-DEBROMOFLUSTRAMINE B]
UO-31
  GI50: 14.8 µM (inactive)
PC-3
  GI50: 27 µM (inactive)
RXF 393
  GI50: 28.5 µM (inactive)
SF-539
  GI50: 24.3 µM (inactive)
MOLT-4
  GI50: 25.6 µM (inactive)
LOX IMVI
  GI50: 15.1 µM (inactive)
ACHN
  GI50: 32.5 µM (inactive)
SK-MEL-2
  GI50: 14 µM (inactive)
DU-145
  GI50: 45.2 µM (inactive)
Hs-578T
  GI50: 22 µM (inactive)
SF-268
  GI50: 46.3 µM (inactive)
KM12
  GI50: 24.5 µM (inactive)
786-0
  GI50: 19.2 µM (inactive)
SNB-19
  GI50: 22.3 µM (inactive)
CAKI-1
  GI50: 26.8 µM (inactive)
HCT-15
  GI50: 25.6 µM
OVCAR-5
  GI50: > 100 µM (inactive)
MDA-MB-435
  GI50: 21.1 µM (inactive)
MDA-N
  GI50: 26.5 µM (inactive)

## O=C1CCC(=O)N1n1c(Cc2ccccc2)n[nH]c1=O
UO-31
  GI50: > 100 µM (inactive)
PC-3
  GI50: > 100 µM (inactive)
RXF 393
  GI50: > 100 µM (inactive)
MOLT-4
  GI50: > 100 µM (inactive)
LOX IMVI
  GI50: > 100 µM (inactive)
ACHN
  GI50: > 100 µM (inactive)
SK-MEL-2
  GI50: > 100 µM (inactive)
DU-145
  GI50: > 100 µM (inactive)
Hs-578T
  GI50: > 100 µM (inactive)
SF-268
  GI50: > 100 µM (inactive)
KM12
  GI50: 7.29 µM (inactive)
786-0
  GI50: > 100 µM (inactive)
M14
  GI50: > 100 µM (inactive)
SNB-19
  GI50: > 100 µM (inactive)
CAKI-1
  GI50: > 100 µM (inactive)
HCT-15
  GI50: > 100 µM
OVCAR-5
  GI50: > 100 µM (inactive)
MDA-MB-435
  GI50: > 100 µM (inactive)
MDA-N
  GI50: > 100 µM (inactive)

## CCCCCCCCCCC(C(=O)O)C1(C(=O)O)CCC(=O)O1 (centres undefined)
UO-31
  GI50: > 100 µM (inactive)
PC-3
  GI50: > 100 µM (inactive)
RXF 393
  GI50: > 100 µM (inactive)
MOLT-4
  GI50: > 100 µM (inactive)
LOX IMVI
  GI50: > 100 µM (inactive)
ACHN
  GI50: > 100 µM (inactive)
SK-MEL-2
  GI50: > 100 µM (inactive)
DU-145
  GI50: > 100 µM (inactive)
Hs-578T
  GI50: > 100 µM (inactive)
SF-268
  GI50: > 100 µM (inactive)
KM12
  GI50: > 100 µM (inactive)
786-0
  GI50: > 100 µM (inactive)
M14
  GI50: > 100 µM (inactive)
SNB-19
  GI50: > 100 µM (inactive)
CAKI-1
  GI50: > 100 µM (inactive)
HCT-15
  GI50: > 100 µM
OVCAR-5
  GI50: > 100 µM (inactive)
MDA-MB-435
  GI50: > 100 µM (inactive)
MDA-N
  GI50: > 100 µM (inactive)

## CC1(C)CC2(C)CC1CC2(O)c1ccccc1 (centres undefined)
UO-31
  GI50: > 100 µM (inactive)
PC-3
  GI50: > 100 µM (inactive)
RXF 393
  GI50: > 100 µM (inactive)
SF-539
  GI50: > 100 µM (inactive)
MOLT-4
  GI50: > 100 µM (inactive)
ACHN
  GI50: > 100 µM (inactive)
DU-145
  GI50: > 100 µM (inactive)
Hs-578T
  GI50: > 100 µM (inactive)
SF-268
  GI50: > 100 µM (inactive)
KM12
  GI50: > 100 µM (inactive)
786-0
  GI50: > 100 µM (inactive)
M14
  GI50: > 100 µM (inactive)
SNB-19
  GI50: > 100 µM (inactive)
CAKI-1
  GI50: > 100 µM (inactive)
OVCAR-5
  GI50: > 100 µM (inactive)
MDA-MB-435
  GI50: > 100 µM (inactive)
MDA-N
  GI50: > 100 µM (inactive)

## O=[N+]([O-])c1ccc(N2N=C(c3c(O)ccc4ccccc34)CC2c2ccc(Cl)cc2)c([N+](=O)[O-])c1 (centres undefined)
UO-31
  GI50: 17.9 µM (inactive)
PC-3
  GI50: 6.4 µM (inactive)
RXF 393
  GI50: 20 µM (inactive)
SF-539
  GI50: 30.1 µM (inactive)
MOLT-4
  GI50: 10.1 µM (inactive)
ACHN
  GI50: 27.4 µM (inactive)
SK-MEL-2
  GI50: 17.8 µM (inactive)
DU-145
  GI50: 19.5 µM (inactive)
Hs-578T
  GI50: 27.4 µM (inactive)
SF-268
  GI50: 29.5 µM (inactive)
KM12
  GI50: 5.65 µM (inactive)
786-0
  GI50: 27.9 µM (inactive)
M14
  GI50: 18.5 µM (inactive)
CAKI-1
  GI50: 28.7 µM (inactive)
HCT-15
  GI50: 14 µM
OVCAR-5
  GI50: 17.1 µM (inactive)
MDA-MB-435
  GI50: 25.6 µM (inactive)
MDA-N
  GI50: 33.1 µM (inactive)

## O=C1C(c2c(O)[nH]c3ccc(F)cc23)=Nc2ccccc21
UO-31
  GI50: > 100 µM (inactive)
PC-3
  GI50: > 100 µM (inactive)
RXF 393
  GI50: 3.19 µM (inactive)
MOLT-4
  GI50: 21.1 µM (inactive)
LOX IMVI
  GI50: > 100 µM (inactive)
ACHN
  GI50: > 100 µM (inactive)
SK-MEL-2
  GI50: 14.5 µM (inactive)
DU-145
  GI50: > 100 µM (inactive)
Hs-578T
  GI50: 13.6 µM (inactive)
SF-268
  GI50: 15.1 µM (inactive)
KM12
  GI50: > 100 µM (inactive)
786-0
  GI50: 4.85 µM (inactive)
M14
  GI50: > 100 µM (inactive)
SNB-19
  GI50: 26.5 µM (inactive)
CAKI-1
  GI50: > 100 µM (inactive)
HCT-15
  GI50: > 100 µM
OVCAR-5
  GI50: > 100 µM (inactive)
MDA-MB-435
  GI50: > 100 µM (inactive)
MDA-N
  GI50: > 100 µM (inactive)

## COc1ccc(/C(Cl)=C(\CNc2ccccn2)c2ccccc2)cc1OC
UO-31
  GI50: > 100 µM (inactive)
PC-3
  GI50: > 100 µM (inactive)
RXF 393
  GI50: > 100 µM (inactive)
SF-539
  GI50: > 100 µM (inactive)
MOLT-4
  GI50: > 100 µM (inactive)
LOX IMVI
  GI50: > 100 µM (inactive)
ACHN
  GI50: > 100 µM (inactive)
SK-MEL-2
  GI50: > 100 µM (inactive)
DU-145
  GI50: > 100 µM (inactive)
Hs-578T
  GI50: > 100 µM (inactive)
SF-268
  GI50: > 100 µM (inactive)
KM12
  GI50: > 100 µM (inactive)
786-0
  GI50: > 100 µM (inactive)
SNB-19
  GI50: > 100 µM (inactive)
CAKI-1
  GI50: > 100 µM (inactive)
HCT-15
  GI50: > 100 µM
OVCAR-5
  GI50: > 100 µM (inactive)
MDA-MB-435
  GI50: > 100 µM (inactive)
MDA-N
  GI50: > 100 µM (inactive)

## CN(C)S(=O)(=O)c1ccc2c(c1)/C(=C1/Nc3ccccc3C1=O)C(=O)N2
UO-31
  GI50: 44.3 µM (inactive)
PC-3
  GI50: 23 µM (inactive)
RXF 393
  GI50: 1.71 µM (inactive)
MOLT-4
  GI50: 14.1 µM (inactive)
LOX IMVI
  GI50: 41.6 µM (inactive)
ACHN
  GI50: 12.1 µM (inactive)
SK-MEL-2
  GI50: 18.4 µM (inactive)
DU-145
  GI50: 24.9 µM (inactive)
Hs-578T
  GI50: 14.4 µM (inactive)
SF-268
  GI50: 14.7 µM (inactive)
KM12
  GI50: > 100 µM (inactive)
786-0
  GI50: 16 µM (inactive)
M14
  GI50: > 100 µM (inactive)
SNB-19
  GI50: 15.7 µM (inactive)
CAKI-1
  GI50: > 100 µM (inactive)
HCT-15
  GI50: 87.9 µM
OVCAR-5
  GI50: > 100 µM (inactive)
MDA-MB-435
  GI50: > 100 µM (inactive)
MDA-N
  GI50: > 100 µM (inactive)

## Clc1ccc(NCc2nnc(COc3ccc(OCc4nnc(CNc5ccc(Cl)cc5)o4)c(Cl)c3)o2)cc1
UO-31
  GI50: 26.4 µM (inactive)
PC-3
  GI50: 24 µM (inactive)
RXF 393
  GI50: 47.3 µM (inactive)
LOX IMVI
  GI50: 20.3 µM (inactive)
ACHN
  GI50: 38.1 µM (inactive)
SK-MEL-2
  GI50: 14 µM (inactive)
DU-145
  GI50: > 100 µM (inactive)
Hs-578T
  GI50: 28.1 µM (inactive)
SF-268
  GI50: 33.7 µM (inactive)
KM12
  GI50: 26.9 µM (inactive)
786-0
  GI50: > 100 µM (inactive)
M14
  GI50: > 100 µM (inactive)
SNB-19
  GI50: > 100 µM (inactive)
CAKI-1
  GI50: 28.7 µM (inactive)
HCT-15
  GI50: 43.6 µM
OVCAR-5
  GI50: > 100 µM (inactive)
MDA-MB-435
  GI50: 18.5 µM (inactive)
MDA-N
  GI50: 20.4 µM (inactive)
